Source: DBAASP
In brackets after ≈: the same amount, converted by molar mass. One block for each compound: values may come before it.

Experiments:
Assay in all cases: ≥ marks a high value that may be exact or a test limit, other limits are often not marked, values filed in µg/mL are converted to µM
[1] = test system: Pseudomonas aeruginosa Ps4
[2] = test system: Escherichia coli ATCC 25922
[3] = test system: Bacillus subtilis ATCC 23857
[4] = test system: Staphylococcus aureus ATCC 25923
[5] = test system: Escherichia coli ATCC 25726
[6] = test system: Staphylococcus aureus ATCC 43300
[7] = test system: Bacillus subtilis ATCC 6633
[8] = test system: Staphylococcus aureus ATCC 6538
[9] = test system: Escherichia coli ATCC 8739
[10] = test system: Staphylococcus aureus ATCC 29213
[11] = test system: Klebsiella pneumoniae ATCC 700603
[12] = test system: Salmonella enterica subsp. enterica serovar Typhimurium C77-31
[13] = test system: Salmonella enterica subsp. enterica serovar Pullorum C79-13
[14] = test system: Pseudomonas aeruginosa ATCC 27853
[15] = test system: Staphylococcus epidermidis ATCC 12228
[16] = test system: Bacillus subtilis CMCC 63501
[17] = test system: Enterococcus faecalis ATCC 29212
[18] = test system: Acinetobacter baumannii ATCC 19606
Escherichia coli UB1005 = test system: Escherichia coli UB1005

Compound: CC[C@H](C)[C@H](NC(=O)[C@H](CC(N)=O)NC(=O)[C@H](CCCN=C(N)N)NC(=O)[C@H](CCC(N)=O)NC(=O)[C@H](Cc1c[nH]c2ccccc12)NC(=O)[C@@H](N)Cc1ccccc1)C(=O)N[C@@H](CCCN=C(N)N)C(=O)N[C@@H](CO)C(=O)N[C@H](C(=O)N[C@@H](CCCN=C(N)N)C(N)=O)C(C)C [FWQRNIRSVR]
MIC [1]: ≥ 184 µM

Compound: CC[C@H](C)[C@H](NC(=O)[C@H](CC(N)=O)NC(=O)[C@H](CCCN=C(N)N)NC(=O)[C@H](CCC(N)=O)NC(=O)[C@H](Cc1c[nH]c2ccccc12)NC(=O)[C@@H](N)Cc1ccccc1)C(=O)N[C@@H](CCCN=C(N)N)C(=O)N[C@@H](CCCCN)C(=O)N[C@@H](Cc1ccc(O)cc1)C(=O)N[C@@H](CCCN=C(N)N)C(N)=O [FWQRNIRKYR]
MIC [1]: ≥ 170 µM

Compound: CC[C@H](C)[C@H](NC(=O)[C@H](Cc1c[nH]c2ccccc12)NC(=O)[C@H](CC(N)=O)NC(=O)[C@H](CCCN=C(N)N)NC(=O)[C@H](CCC(N)=O)NC(=O)[C@H](Cc1c[nH]c2ccccc12)NC(=O)[C@@H](N)Cc1ccccc1)C(=O)N[C@@H](CCCN=C(N)N)C(=O)N[C@@H](CCCN=C(N)N)C(N)=O [FWQRNWIRR]
MIC [1]: ≥ 184 µM

Compound: CC[C@H](C)[C@H](NC(=O)[C@H](CCCN=C(N)N)NC(=O)[C@H](CCC(N)=O)NC(=O)[C@H](Cc1c[nH]c2ccccc12)NC(=O)[C@@H](N)Cc1ccccc1)C(=O)N[C@@H](CCCN=C(N)N)C(=O)N[C@@H](CCCCN)C(=O)N[C@H](C(=O)N[C@@H](CCCN=C(N)N)C(N)=O)C(C)C [FWQRIRKVR]
MIC [1]: ≥ 194 µM

Compound: NC(=O)[C@H](Cc1c[nH]c2ccccc12)NC(=O)[C@H](Cc1c[nH]c2ccccc12)NC(=O)[C@H](CCCN=C(N)N)NC(=O)[C@H](CCCN=C(N)N)NC(=O)[C@H](Cc1c[nH]c2ccccc12)NC(=O)[C@H](CCCN=C(N)N)NC(=O)[C@H](CCCN=C(N)N)NC(=O)[C@H](Cc1c[nH]c2ccccc12)NC(=O)[C@H](Cc1c[nH]c2ccccc12)NC(=O)[C@@H](N)CCCN=C(N)N [RWWRRWRRWW]
MIC [17]: 32 µM (≈ 55.3 µg/mL) | MIC [11]: 32 µM (≈ 55.3 µg/mL) | MIC [2]: 32 µM (≈ 55.3 µg/mL) | MIC [3]: 4 µM (≈ 6.92 µg/mL) | MIC [18]: 32 µM (≈ 55.3 µg/mL) | MIC [14]: 8 µM (≈ 13.8 µg/mL) | MIC [15]: 32 µM (≈ 55.3 µg/mL) | MIC [4]: 8 µM (≈ 13.8 µg/mL)

Compound: CC[C@H](C)[C@H](NC(=O)[C@H](CCCCN)NC(=O)[C@H](CO)NC(=O)[C@H](C)NC(=O)[C@H](Cc1c[nH]c2ccccc12)NC(=O)CN)C(=O)NCC(=O)N[C@@H](CCC(N)=O)C(=O)N[C@H](C(=O)N[C@@H](CC(C)C)C(=O)NCC(=O)N[C@@H](CCCCN)C(=O)N[C@@H](CCSC)C(=O)N[C@@H](C)C(=O)N[C@@H](CCCCN)C(=O)N[C@H](C(=O)NCC(=O)N[C@@H](CC(C)C)C(=O)N[C@@H](CCC(N)=O)C(=O)N[C@@H](CCC(=O)O)C(=O)N[C@H](C(=O)N[C@H](C(=O)N[C@@H](CCC(N)=O)C(=O)N1CCC[C@H]1C(=O)N[C@@H](CCCCN)C(=O)O)[C@@H](C)CC)[C@@H](C)CC)C(C)C)[C@@H](C)O [GWASKIGQTLGKMAKVGLQEIIQPK]
MIC [4]: > 50 µM | MIC [5]: ≥ 50 µM

Compound: NC(=O)[C@@H]1CCCN1C(=O)[C@H](CCCN=C(N)N)NC(=O)[C@@H]1CCCN1C(=O)[C@H](CCCN=C(N)N)NC(=O)[C@H](CS)NC(=O)[C@H](Cc1ccccc1)NC(=O)[C@H](CCCN=C(N)N)NC(=O)[C@H](CCCN=C(N)N)NC(=O)[C@H](CCCN=C(N)N)NC(=O)[C@H](CS)NC(=O)[C@H](CCCN=C(N)N)NC(=O)[C@@H]1CCCN1C(=O)[C@H](CCCN=C(N)N)NC(=O)[C@@H]1CCCN1 [PRPRCRRRFCRPRP]
MIC [17]: > 128 µM | MIC [10]: > 128 µM | MIC [2]: 16 µM (≈ 29.6 µg/mL) | MIC [12]: ≥ 128 µM | MIC [13]: ≥ 128 µM | MIC [14]: > 128 µM | MIC [15]: > 128 µM | MIC [16]: 8 µM (≈ 14.8 µg/mL)

More lines, now with the values ahead:

MIC [1]: 23.9 µM (≈ 31.2 µg/mL)
Compound: CC[C@H](C)[C@H](NC(=O)[C@H](CCCN=C(N)N)NC(=O)[C@H](Cc1c[nH]c2ccccc12)NC(=O)[C@H](CCCN=C(N)N)NC(=O)[C@H](Cc1c[nH]c2ccccc12)NC(=O)[C@@H](N)Cc1ccccc1)C(=O)N[C@@H](Cc1c[nH]c2ccccc12)C(=O)N[C@@H](CCCN=C(N)N)C(N)=O [FWRWRIWR]

MIC [2]: 64 µM (≈ 78.3 µg/mL) | MIC [3]: ≥ 32 µM
Compound: CC[C@H](C)[C@H](NC(=O)CNC(=O)[C@H](C)NC(=O)[C@@H](NC(=O)[C@H](C)NC(=O)CN)[C@@H](C)CC)C(=O)N[C@H](C(=O)N[C@H](C(=O)N[C@@H](CCCCN)C(=O)N[C@H](C(=O)N[C@@H](CCCCN)C(=O)N[C@@H](CCCCN)C(N)=O)[C@@H](C)CC)[C@@H](C)CC)[C@@H](C)CC [GAIAGIIIKIKK]

MIC [4]: 2 µM (≈ 5.11 µg/mL) | MIC [5]: ≥ 32 µM
Compound: CC[C@H](C)[C@H](NC(=O)[C@H](CCCCN)NC(=O)[C@H](C)NC(=O)[C@H](C)NC(=O)[C@H](CC(C)C)NC(=O)CNC(=O)[C@H](C)NC(=O)[C@H](CC(C)C)NC(=O)[C@@H](NC(=O)[C@@H]1CCCN1C(=O)[C@H](CC(C)C)NC(=O)[C@@H](N)Cc1ccccc1)[C@@H](C)CC)C(=O)N[C@H](C(=O)N1CCC[C@H]1C(=O)N[C@@H](CCCCN)C(=O)N[C@@H](CC(C)C)C(=O)N[C@@H](Cc1ccccc1)C(=O)N[C@H]1CSSC[C@@H](C(=O)O)NC(=O)[C@H](CCCCN)NC(=O)[C@H](CCCCN)NC(=O)[C@H]([C@@H](C)O)NC(=O)[C@H](C)NC(=O)[C@H](CC(C)C)NC1=O)C(C)C [FLPILAGLAAKIVPKLFCLATKKC]

MIC [6]: 100 µM (≈ 339 µg/mL) | MIC [7]: 12.5 µM (≈ 42.4 µg/mL) | MIC [8]: 12.5 µM (≈ 42.4 µg/mL) | MIC [9]: ≥ 50 µM
Compound: CC[C@H](C)[C@@H]1NC(=O)[C@H](CCCCN)NC(=O)[C@@H](NC(=O)[C@H](CO)NC(=O)[C@H](CC(C)C)NC(=O)[C@H](C)NC(=O)[C@H](CC(N)=O)NC(=O)[C@H](CC(C)C)NC(=O)[C@@H](NC(=O)[C@H](CO)NC(=O)[C@@H](NC(=O)CNC(=O)[C@H](C)NC(=O)[C@H](CO)NC(=O)[C@H](CCCCN)NC(=O)[C@H](C)NC(=O)[C@H](C)NC(=O)[C@H](CC(N)=O)NC(=O)[C@@H](NC(=O)[C@H](C)NC(=O)[C@H](CC(C)C)NC(=O)[C@H](CC(N)=O)NC(=O)[C@H](CCCCN)NC(=O)[C@H](Cc2ccccc2)NC(=O)[C@@H](NC(=O)[C@H](CC(=O)O)NC(=O)[C@H](CC(C)C)NC(=O)[C@H](CC(C)C)NC(=O)[C@@H](N)CO)[C@@H](C)O)C(C)C)C(C)C)C(C)C)CSSC[C@@H](C(=O)O)NC(=O)[C@H]([C@@H](C)O)NC(=O)[C@H](CCCN=C(N)N)NC(=O)[C@H](CO)NC1=O [SLLDTFKNLAVNAAKSAGVSVLNALSCKISRTC]

MIC [10]: 4 µM (≈ 7.67 µg/mL) | MIC [11]: 8 µM (≈ 15.3 µg/mL) | MIC [12]: 4 µM (≈ 7.67 µg/mL) | MIC [13]: 1 µM (≈ 1.92 µg/mL) | MIC [3]: 4 µM (≈ 7.67 µg/mL) | MIC [14]: 4 µM (≈ 7.67 µg/mL) | MIC [15]: 4 µM (≈ 7.67 µg/mL) | MIC [4]: 8 µM (≈ 15.3 µg/mL) | MIC [16]: 2 µM (≈ 3.83 µg/mL)
Compound: CC[C@H](C)[C@H](N)C(=O)N[C@@H](CCCN=C(N)N)C(=O)N[C@H](C(=O)N[C@@H](CCCN=C(N)N)C(=O)N[C@@H](CS)C(=O)N[C@@H](CCCN=C(N)N)C(=O)N[C@@H](CCCN=C(N)N)C(=O)N[C@@H](CCCN=C(N)N)C(=O)N[C@@H](Cc1ccccc1)C(=O)N[C@@H](CS)C(=O)N[C@@H](CCCN=C(N)N)C(=O)N[C@H](C(=O)N[C@@H](CCCN=C(N)N)C(=O)N[C@H](C(N)=O)[C@@H](C)CC)[C@@H](C)CC)[C@@H](C)CC [IRIRCRRRFCRIRI]

MIC [6]: 8 µM (≈ 16.8 µg/mL) | MIC [17]: 16 µM (≈ 33.5 µg/mL) | MIC [10]: 16 µM (≈ 33.5 µg/mL) | MIC [2]: 4 µM (≈ 8.39 µg/mL) | MIC [12]: 8 µM (≈ 16.8 µg/mL) | MIC [13]: 8 µM (≈ 16.8 µg/mL) | MIC [14]: 16 µM (≈ 33.5 µg/mL) | MIC [15]: 16 µM (≈ 33.5 µg/mL) | MIC (Escherichia coli UB1005): 4 µM (≈ 8.39 µg/mL) | MIC [16]: 8 µM (≈ 16.8 µg/mL)
Compound: CC[C@H](C)[C@H](NC(=O)[C@H](CCCN=C(N)N)NC(=O)CNC(=O)[C@@H](NC(=O)[C@@H](NC(=O)[C@H](CCCN=C(N)N)NC(=O)[C@H](CCCCN)NC(=O)[C@H](Cc1ccccc1)NC(=O)[C@H](CCC(=O)O)NC(=O)[C@H](CCCCN)NC(=O)CN)[C@@H](C)CC)C(C)C)C(=O)N[C@@H](Cc1ccc(O)cc1)C(=O)N[C@@H](CCCN=C(N)N)C(=O)N[C@@H](CC(C)C)C(=O)N[C@@H](CS)C(=O)N[C@@H](CS)C(=O)N[C@@H](CCCN=C(N)N)C(N)=O [GKEFKRIVGRIYRLCCR]

MIC [1]: ≥ 181 µM
Compound: CC[C@H](C)[C@H](NC(=O)[C@H](CC(N)=O)NC(=O)[C@H](CCCN=C(N)N)NC(=O)[C@H](CCC(N)=O)NC(=O)[C@H](Cc1ccc(O)cc1)NC(=O)[C@@H](N)Cc1ccccc1)C(=O)N[C@@H](CCCN=C(N)N)C(=O)N[C@@H](CCCCN)C(=O)N[C@H](C(=O)N[C@@H](CCCN=C(N)N)C(N)=O)C(C)C [FYQRNIRKVR]
